From patent US20080280926A1, “Phosphodiesterase Inhibitors” (priority 2003, published 2008) come the findings set out here.

Each structure is given as a SMILES string.

Regarding `CC(C)(C)C(=O)Nc1ncnc2c1nc(-n1cccn1)n2Cc1ccccc1` [Compound No. 1, N-(9-Benzyl-8-pyrazol-1-yl-9H-purin-6-yl)-2,2-dimethylpropionamide], the melting point (as a rule, the temperature, or range, at which the solid turns liquid) was 124 to 125 °C.
With `C=CCNC(=O)Nc1ncnc2c1nc(-n1cccn1)n2Cc1ccccc1` [Compound No. 12, 1-Allyl-3-(9-benzyl-8-pyrazol-1-yl-9H-purin-6-yl)-urea] the figure was 189.5 to 199 °C.
